The text below walks through data of ChEMBL document CHEMBL3817842, “Structure-based optimization and derivatization of 2-substituted quinolone-based non-nucleoside HCV NS5B inhibitors with submicromolar cellular replicon potency” (Bioorg Med Chem Lett, 2016).

Series [1] can be described thus: Cytotoxicity against human Huh7.5.1 cells infected with human HCV genotype 2a JFH1 incubated for 72 hrs by MTT assay. In kind it is cell-based, Huh-7. The conditions noted are these: Huh7.5.1 cells infected with HCV genotype 2a JFH1. Background: Formazan colour is commonly taken as a measure of viable cells.
The subject of series [2] is Hepatitis C virus. Description: Antiviral activity against HCV genotype 2a JFH1 infected in human Huh7.5.1 cells incubated for 72 hrs by GFP based J399EAM HCV reporter assay. In kind it is functional, organism-based, Hepacivirus hominis. The conditions noted are these: subtype 2a JFH1, Huh-7, 72 h. Background: In a reporter assay the amount or activity of a reporter protein is the signal.

The nature of series [3]: Selectivity index, ratio of CC50 for human Huh7.5.1 cells infected with human HCV genotype 2a JFH1 to EC50 for HCV genotype 2a JFH1 infected in human Huh7.5.1 cells. Details: species or system Huh-7.
Series [4] is described as follows: Cytotoxicity against human Huh7.5.1 cells infected with human HCV genotype 2a JFH1 assessed as cell viability at 5 uM incubated for 72 hrs by MTT assay. The conditions noted are these: Huh7.5.1 cells infected with HCV genotype 2a JFH1, read-out: Activity. In kind it is cell-based, Huh-7.
The subject of series [5] is Hepatitis C virus. As to the kind of experiment: Antiviral activity against HCV genotype 2a JFH1 infected in human Huh7.5.1 cells at 5 uM incubated for 72 hrs by GFP based J399EAM HCV reporter assay. In kind it is functional, Hepacivirus hominis. The following applies: for inhibition at 5 µM: subtype 2a JFH1, Huh-7, 72 h; for inhibition: Hepacivirus hominis, subtype 2a JFH1, Huh-7.

Active and inactive are the calls of the source. No cut-off for these calls is given here.

Broadly, the CC50 is the concentration that lowers cell viability or growth by half. The low end stands for greater toxicity to the cells, the high end for lower toxicity to the cells. As usually defined, the EC50 is the concentration that produces a half-maximal response. A lower EC50 goes with greater potency. By inhibition is commonly meant the share of the control response that was lost under treatment.

On to `CN1CCN(c2c(F)cc3c(=O)c(C(=O)OCc4ccc(Cl)cc4)c(-c4ccc(F)cc4)n(C4CC4)c3c2F)CC1`, for which, in series [1], the CC50 at 72 h was 13.2 µM. In addition, it took 2.02 µM to reach a half-maximal effect with Hepatitis C virus [2] (EC50). In addition, in series [3], the “Ratio CC50/EC50” value is 5.5.

In the case of `O=C(Nc1ccc(-n2ccc(=O)c3c(=O)n(Cc4ccc(Cl)cc4)ccc32)cc1)c1ccccn1`, in series [4], the viability at 72 h, 5 µM was 88.7%. The same molecule had an inhibition at 5 µM in the series on Hepatitis C virus [5] of 41.7%.

For `Nc1ccc(-n2ccc(=O)c3c(=O)n(Cc4ccc(Cl)cc4)ccc32)c(C(F)(F)F)c1`, the viability at 72 h, 5 µM in series [4] turned out to be 84.8%. Also, in the series on Hepatitis C virus [5], at 5 µM the inhibition was 43.8%.

Turning to `Cc1ccc(Cn2ccc3c(c(=O)ccn3-c3ccc(N)c(C(F)(F)F)c3)c2=O)c(C)c1`, in series [4], the viability at 72 h, 5 µM was determined as 99.8%. For the same molecule, the inhibition at 5 µM in the series with Hepatitis C virus [5] turned out to be 51.7%.

In series [1], `O=c1ccn(-c2ccc([N+](=O)[O-])c(C(F)(F)F)c2)c2ccn(Cc3ccc(Cl)cc3)c(=O)c12` registered a cytotoxic concentration (CC50) at 72 h of 10.6 µM. Moreover, the viability at 72 h, 5 µM in series [4] amounted to 75.6%. 5 µM produced 65.7% inhibition with Hepatitis C virus [5]. The molecule also registered an EC50 with Hepatitis C virus [2] of 4.8 µM. Besides, in series [3], the “Ratio CC50/EC50” value amounted to 2.2.

Take `O=C(Nc1ccc(-n2ccc(=O)c3c(=O)n(Cc4ccc(Cl)cc4)ccc32)c(C(F)(F)F)c1)c1cc(F)ccc1F`: in series [1], half-maximal cytotoxicity (CC50 at 72 h) was put at 1.5 µM. Besides, in series [4], the viability at 72 h, 5 µM was 38.4%. In the series on Hepatitis C virus [5], this molecule registered an inhibition at 5 µM of 98.2%. In addition, the half-maximal effective concentration (EC50) in the series with Hepatitis C virus [2] amounted to 1.4 µM. Besides, in series [3], the “Ratio CC50/EC50” value is on record as 1.1.

Take `CCc1c(C(=O)OCc2ccc(Cl)cc2)c(=O)c2cc(F)c(OC)cc2n1Cc1ccc(Cl)cc1`: the 50% cytotoxic concentration (CC50) at 72 h in series [1] came out at 26.8 µM. Also, a half-maximal effect in the series on Hepatitis C virus [2] (EC50) was put at 3.7 µM. Further, in series [3], the “Ratio CC50/EC50” value was 7.2.

`Nc1ccc(-n2ccc(=O)c3c(=O)n(Cc4ccc(Cl)cc4)ccc32)cc1`: the viability at 72 h, 5 µM in series [4] was found to be 94.6%. Moreover, the inhibition at 5 µM with Hepatitis C virus [5] came out at 39.8%.

`Nc1ccc(-n2ccc(=O)c3c(=O)n(Cc4ccc(Cl)cc4)ccc32)cc1C(F)(F)F` had a half-maximal cytotoxic concentration (CC50) at 72 h in series [1] of 17.9 µM. Also, the viability at 72 h, 5 µM in series [4] turned out to be 74.3%. In the series on Hepatitis C virus [5], the inhibition at 5 µM was 78.9%. The EC50 in the series on Hepatitis C virus [2] stood at 2.5 µM. Besides, in series [3], the “Ratio CC50/EC50” value stood at 7.2.

For `Nc1ccc(-n2ccc(=O)c3c(=O)n(CC4CC=CC4)ccc32)cc1C(F)(F)F`, the viability at 72 h, 5 µM in series [4] is 100%. In addition, in the series with Hepatitis C virus [5], the inhibition entry is “inactive”.

`Cc1cc(N)ccc1-n1ccc(=O)c2c(=O)n(Cc3ccc(Cl)cc3)ccc21`: in series [4], the viability at 72 h, 5 µM stood at 91.6%. The molecule further registered an inhibition at 5 µM in the series on Hepatitis C virus [5] of 52%.

For the molecule `Nc1ccc(-n2ccc(=O)c3c(=O)n(CC4CCCCC4)ccc32)cc1C(F)(F)F`, the viability at 72 h, 5 µM in series [4] worked out at 100%. In the series with Hepatitis C virus [5], this molecule gave an inhibition at 5 µM of 7.7%.

Molecule `Cc1c(C(=O)OCc2ccc(Cl)cc2)c(=O)c2cc(F)c(N3CCN(C)CC3)cc2n1Cc1ccc(Cl)cc1` registered a CC50 at 72 h in series [1] of 33.1 µM. The midpoint of the response in the series on Hepatitis C virus [2], the EC50, lay at 7.2 µM. Further, the “Ratio CC50/EC50” value in series [3] is 4.6.

`CN1CCN(c2cc3c(cc2F)c(=O)c(C(=O)OCc2ccc(Cl)cc2)cn3Cc2ccc(Cl)cc2)CC1`: the CC50 at 72 h in series [1] is > 40 µM. Moreover, in the series with Hepatitis C virus [2], a half-maximal effect (EC50) was put at 4.3 µM. Also, the “Ratio CC50/EC50” value in series [3] is on record as >9.3.

Regarding `Cc1cc(NC(=O)c2ccccc2F)ccc1-n1ccc(=O)c2c(=O)n(Cc3ccc(Cl)cc3)ccc21`, in series [4], the viability at 72 h, 5 µM came out at 72.6%. The inhibition at 5 µM in the series on Hepatitis C virus [5] was determined as 55.2%.

With `COc1cc2c(cc1F)c(=O)c(C(=O)OCc1ccc(Cl)cc1)c(C)n2Cc1ccc(Cl)cc1`, in series [1], the half-maximal cytotoxic concentration (CC50) at 72 h is > 40 µM. Moreover, the EC50 with Hepatitis C virus [2] was determined as 2.4 µM. The “Ratio CC50/EC50” value in series [3] is recorded as >16.7.

As for `COCc1c(C(=O)OCc2ccc(Cl)cc2)c(=O)c2cc(F)c(N3CCN(C)CC3)cc2n1Cc1ccc(Cl)cc1`, in series [1], the cytotoxic concentration (CC50) at 72 h is 4.3 µM. In addition, a half-maximal effect with Hepatitis C virus [2] (EC50) was put at 0.4 µM. Also, the “Ratio CC50/EC50” value in series [3] was 10.8.

In the case of `O=C(Nc1ccc(-n2ccc(=O)c3c(=O)n(Cc4ccc(Cl)cc4)ccc32)cc1)c1ncccc1Cl`, the viability at 72 h, 5 µM in series [4] was 68.6%. The molecule further yielded an inhibition at 5 µM in the series with Hepatitis C virus [5] of 52.3%.

As to `COCc1c(C(=O)OCc2ccc(Cl)cc2)c(=O)c2cc(F)c(OC)cc2n1Cc1ccc(Cl)cc1`, in series [1], the CC50 at 72 h was > 40 µM. The EC50 in the series with Hepatitis C virus [2] stood at 11.1 µM. Moreover, the “Ratio CC50/EC50” value in series [3] is >3.6.

As to `Cc1ccc(Cn2ccc3c(c(=O)ccn3-c3ccc(N)c(C(F)(F)F)c3)c2=O)cc1`, in series [4], the viability at 72 h, 5 µM came out at 100%. Further, testing at 5 µM in the series with Hepatitis C virus [5] gave an inhibition of 38.7%.

For `N#Cc1ccc(-n2ccc(=O)c3c(=O)n(Cc4ccc(Cl)cc4)ccc32)cc1C(F)(F)F`, the viability at 72 h, 5 µM in series [4] was determined as 86.4%. Moreover, the inhibition result in the series with Hepatitis C virus [5] is “inactive”.

On to `Cc1ccc(C(=O)Nc2ccc(-n3ccc(=O)c4c(=O)n(Cc5ccc(Cl)cc5)ccc43)cc2)o1`, for which the viability at 72 h, 5 µM in series [4] amounted to 88%. Moreover, at 5 µM the inhibition in the series with Hepatitis C virus [5] was 42.6%.

For `Cc1cc(NC(=O)Nc2ccc(F)cc2)ccc1-n1ccc(=O)c2c(=O)n(Cc3ccc(Cl)cc3)ccc21`, in series [4], the viability at 72 h, 5 µM was 70.4%. The inhibition at 5 µM in the series with Hepatitis C virus [5] was 53.1%.

Consider `COCc1c(C(=O)OCc2ccc(Cl)cc2)c(=O)c2cc(F)c(N3CCN(Cc4ccccc4)CC3)cc2n1Cc1ccc(Cl)cc1`, for which the CC50 at 72 h in series [1] was > 40 µM. The molecule further had a 50% effective concentration (EC50) in the series on Hepatitis C virus [2] of 4.9 µM. Moreover, the “Ratio CC50/EC50” value in series [3] is on record as >8.2.

For the molecule `O=C(Nc1ccc(F)cc1)Nc1ccc(-n2ccc(=O)c3c(=O)n(Cc4ccc(Cl)cc4)ccc32)cc1`, the viability at 72 h, 5 µM in series [4] turned out to be 98.4%. The molecule also showed an inhibition at 5 µM in the series on Hepatitis C virus [5] of 18.8%.

On to `O=C(Nc1ccc(F)cc1)Nc1ccc(-n2ccc(=O)c3c(=O)n(Cc4ccc(Cl)cc4)ccc32)c(C(F)(F)F)c1`, for which, in series [4], the viability at 72 h, 5 µM came to 75.4%. Besides, at 5 µM the inhibition in the series on Hepatitis C virus [5] was 33.4%.

As for `O=C(Nc1ccc(-n2ccc(=O)c3c(=O)n(Cc4ccc(Cl)cc4)ccc32)cc1)c1cc(F)ccc1F`, the half-maximal cytotoxic concentration (CC50) at 72 h in series [1] is 6.4 µM. The viability at 72 h, 5 µM in series [4] was 46.1%. Besides, testing at 5 µM in the series on Hepatitis C virus [5] gave an inhibition of 95.7%. Moreover, the EC50 in the series on Hepatitis C virus [2] was 4.6 µM. In addition, the “Ratio CC50/EC50” value in series [3] worked out at 1.4.

For `Nc1ccc(-n2ccc(=O)c3c(=O)n(Cc4ccccc4)ccc32)cc1C(F)(F)F`, the viability at 72 h, 5 µM in series [4] was found to be 96.8%. In the series on Hepatitis C virus [5], the inhibition entry was “inactive”.

In the case of `Nc1ccc(-n2ccc(=O)c3c(=O)n(Cc4ccc(Cl)cc4)ccc32)cc1Cl`, the midpoint of cytotoxicity in series [1], the CC50 at 72 h, lay at 19.4 µM. The viability at 72 h, 5 µM in series [4] was determined as 79.2%. Also, 5 µM produced 68% inhibition in the series on Hepatitis C virus [5]. This molecule showed an EC50 in the series on Hepatitis C virus [2] of 6.4 µM. Also, the “Ratio CC50/EC50” value in series [3] stood at 3.

As to `O=c1ccn(-c2ccc([N+](=O)[O-])cc2C(F)(F)F)c2ccn(Cc3ccc(Cl)cc3)c(=O)c12`, in series [4], the viability at 72 h, 5 µM came to 88.2%. In the series on Hepatitis C virus [5], testing at 5 µM gave an inhibition of 58.6%.
